Test results published in patent US20090093460A1, “Compositions” (AstraZeneca AB, priority 2003, published 2009).
Read-outs that look alike come from different tables or passages of the source.

Assays:
5HT Transporter = biological target: T1, 5HT Transporter (Homo sapiens, UniProt P31645); assay: PET scans of primate subjects, 5HT Transporter occupancy; format: in vivo; details: preliminary PET scans
T1 construct: from tissue; host or cells: brain of living primate subjects (PET)
Excerpt: (§1) The compound of Formula I is a dibenzothiazepine that has shown antidopaminergic activity.

Adrenergic α2A = biological target: T2, Adrenergic α2A (Homo sapiens, UniProt P08913); assay: Radioligand binding Adrenergic α2A
T2 sequence (P08913 1-465): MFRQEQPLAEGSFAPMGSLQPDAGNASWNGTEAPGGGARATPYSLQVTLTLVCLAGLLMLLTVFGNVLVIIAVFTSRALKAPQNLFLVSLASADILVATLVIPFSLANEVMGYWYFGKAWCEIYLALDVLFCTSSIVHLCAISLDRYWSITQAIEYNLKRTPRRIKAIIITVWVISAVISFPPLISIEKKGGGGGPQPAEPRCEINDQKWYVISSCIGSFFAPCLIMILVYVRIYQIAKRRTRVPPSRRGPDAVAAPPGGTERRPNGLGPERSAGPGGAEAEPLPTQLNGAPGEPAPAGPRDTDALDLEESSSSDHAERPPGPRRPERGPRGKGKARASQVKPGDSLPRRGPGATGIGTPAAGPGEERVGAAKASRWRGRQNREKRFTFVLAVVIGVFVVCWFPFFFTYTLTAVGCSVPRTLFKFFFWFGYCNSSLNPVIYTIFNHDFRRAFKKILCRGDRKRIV

mice = assay: Standard apomorphine climbing mouse assay; format: in vivo; details: p.o.
Excerpt: The methods and procedures used can be found in Warawa et al., J. Med. Chem., 2001, 44 (3), 372-389, and are incorporated herein by reference.

Adrenergic α1D = biological target: T3, Adrenergic α1D (Homo sapiens, UniProt P25100); assay: Radioligand binding 203400 Adrenergic α1D
T3 construct: host or cells: HEK-293 cells
T3 sequence (P25100 1-572): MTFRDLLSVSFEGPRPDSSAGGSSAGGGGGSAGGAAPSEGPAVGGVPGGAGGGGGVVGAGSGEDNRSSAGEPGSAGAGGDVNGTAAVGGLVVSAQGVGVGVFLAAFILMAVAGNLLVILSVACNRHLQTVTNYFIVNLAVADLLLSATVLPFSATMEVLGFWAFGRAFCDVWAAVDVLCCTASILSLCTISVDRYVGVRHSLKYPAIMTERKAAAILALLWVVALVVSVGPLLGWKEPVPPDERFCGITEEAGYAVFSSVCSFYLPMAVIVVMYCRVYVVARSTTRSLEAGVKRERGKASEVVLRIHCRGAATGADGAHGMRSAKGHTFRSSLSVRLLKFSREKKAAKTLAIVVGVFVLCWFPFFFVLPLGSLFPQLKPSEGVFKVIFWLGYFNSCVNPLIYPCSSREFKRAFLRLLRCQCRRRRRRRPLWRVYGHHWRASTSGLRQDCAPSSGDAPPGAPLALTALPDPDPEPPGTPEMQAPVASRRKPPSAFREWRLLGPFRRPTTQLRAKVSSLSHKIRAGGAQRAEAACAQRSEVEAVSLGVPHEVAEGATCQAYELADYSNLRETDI
Excerpt: (§2) Receptor binding methods, (α-adrenergic subtype specific, are provided below.

5-HT2A receptors = biological target: T4, 5-HT2A receptors (Homo sapiens, UniProt P28223); assay: PET scans of primate subjects, 5-HT2A occupancy; format: in vivo; details: preliminary PET scans
T4 construct: from tissue; host or cells: brain of living primate subjects (PET)
T4 sequence (P28223 whole entry): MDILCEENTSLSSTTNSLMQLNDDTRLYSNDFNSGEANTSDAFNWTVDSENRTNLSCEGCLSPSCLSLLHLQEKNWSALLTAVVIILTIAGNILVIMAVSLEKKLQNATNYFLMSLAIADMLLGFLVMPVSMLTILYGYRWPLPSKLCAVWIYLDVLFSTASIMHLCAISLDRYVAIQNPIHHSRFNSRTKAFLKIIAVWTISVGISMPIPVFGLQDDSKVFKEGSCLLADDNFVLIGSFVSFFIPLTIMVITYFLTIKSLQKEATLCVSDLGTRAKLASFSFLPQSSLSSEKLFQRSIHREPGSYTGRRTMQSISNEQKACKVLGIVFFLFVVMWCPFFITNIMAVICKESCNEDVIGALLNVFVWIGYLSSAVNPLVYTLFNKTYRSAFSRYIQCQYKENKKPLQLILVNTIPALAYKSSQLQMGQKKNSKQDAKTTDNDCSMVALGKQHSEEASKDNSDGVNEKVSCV
Excerpt: as §1

Adrenergic α1B = biological target: T5, Adrenergic α1B (Rattus norvegicus, UniProt P15823); assay: Radioligand binding 203200 Adrenergic α1B
T5 construct: 203200
T5 sequence (P15823 1-515): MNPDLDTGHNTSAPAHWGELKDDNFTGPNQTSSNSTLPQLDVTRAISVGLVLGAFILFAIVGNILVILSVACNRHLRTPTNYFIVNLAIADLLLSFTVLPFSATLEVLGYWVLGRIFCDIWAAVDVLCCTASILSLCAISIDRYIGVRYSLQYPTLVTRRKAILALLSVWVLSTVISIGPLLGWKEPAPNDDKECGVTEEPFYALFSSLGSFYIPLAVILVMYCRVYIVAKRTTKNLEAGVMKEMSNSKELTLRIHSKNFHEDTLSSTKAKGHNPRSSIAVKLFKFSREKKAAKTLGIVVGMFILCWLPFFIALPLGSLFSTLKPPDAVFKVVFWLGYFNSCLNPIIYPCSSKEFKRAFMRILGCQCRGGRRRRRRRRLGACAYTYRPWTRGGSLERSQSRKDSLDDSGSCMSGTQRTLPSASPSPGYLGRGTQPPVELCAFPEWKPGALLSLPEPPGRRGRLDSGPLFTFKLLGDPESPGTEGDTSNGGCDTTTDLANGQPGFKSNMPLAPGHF
Excerpt: as §2

[1] = Oral bioavailability in Sprague-Dawley rats; format: in vivo; details: rat, plasma, 30 μmol/kg
Protocol: 11-piperazin-1-yldibenzo[b,f][1,4]thiazepine was administered to 3 Sprague-Dawley rats each either intravenously or orally at doses of 10 μmol/kg or 30 μmol/kg, respectively, in a sodium citrate (pH 3) formulation. Blood samples were removed from each animal at several time points after dosing. The blood samples were centrifuged to produce plasma. Aliquots of each plasma sample were analyzed by an HPLC method with mass spectrometric detection to measure 11-piperazin-1-yldibenzo[b,f][1,4]thiazepine. The area under the plasma concentration curves (AUC) constructed from the sample measurements following iv or po administration were used to calculate oral biovailability.

Adrenergic α2C = biological target: T6, Adrenergic α2C (Homo sapiens, UniProt P18825); assay: Radioligand binding Adrenergic α2C
T6 sequence (P18825 1-462): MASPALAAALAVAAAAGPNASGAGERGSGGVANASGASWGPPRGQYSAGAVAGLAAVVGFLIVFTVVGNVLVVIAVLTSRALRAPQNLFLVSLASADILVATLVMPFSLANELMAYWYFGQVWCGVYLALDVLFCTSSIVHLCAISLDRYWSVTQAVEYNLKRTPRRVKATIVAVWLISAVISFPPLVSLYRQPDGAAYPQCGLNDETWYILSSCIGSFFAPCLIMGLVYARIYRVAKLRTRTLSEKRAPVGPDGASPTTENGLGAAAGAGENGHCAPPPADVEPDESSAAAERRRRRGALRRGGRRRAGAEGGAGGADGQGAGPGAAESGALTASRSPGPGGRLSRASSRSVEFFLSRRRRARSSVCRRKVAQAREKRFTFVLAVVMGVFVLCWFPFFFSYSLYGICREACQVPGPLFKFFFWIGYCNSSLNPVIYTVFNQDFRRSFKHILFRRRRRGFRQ

T1 sequence (P31645 whole entry, species assumed): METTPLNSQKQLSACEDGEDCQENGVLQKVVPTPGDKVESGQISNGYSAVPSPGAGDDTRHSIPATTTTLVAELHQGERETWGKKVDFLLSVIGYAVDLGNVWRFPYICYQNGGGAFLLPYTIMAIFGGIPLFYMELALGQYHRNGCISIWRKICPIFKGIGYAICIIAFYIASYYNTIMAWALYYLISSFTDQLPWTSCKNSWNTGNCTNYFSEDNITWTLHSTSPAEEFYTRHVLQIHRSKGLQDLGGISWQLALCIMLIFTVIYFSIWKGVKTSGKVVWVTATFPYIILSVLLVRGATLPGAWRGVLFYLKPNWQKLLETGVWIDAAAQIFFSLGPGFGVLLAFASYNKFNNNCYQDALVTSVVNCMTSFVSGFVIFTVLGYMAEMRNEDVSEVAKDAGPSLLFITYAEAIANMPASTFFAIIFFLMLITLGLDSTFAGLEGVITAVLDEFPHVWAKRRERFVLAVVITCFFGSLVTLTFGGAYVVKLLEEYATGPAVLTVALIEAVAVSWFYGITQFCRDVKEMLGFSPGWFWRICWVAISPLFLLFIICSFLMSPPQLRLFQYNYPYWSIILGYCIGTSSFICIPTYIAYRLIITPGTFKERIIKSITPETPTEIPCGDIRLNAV

c1ccc2c(c1)N=C(N1CCNCC1)c1ccccc1S2 [11-piperazin-1-yldibenzo[b,f][1,4]thiazepine]
transporter occupancy by PET (5HT Transporter): occupies | IC50 (Adrenergic α2A): 2820 ± 275 nM | Ki (Adrenergic α2A): 1060 ± 103 nM | n (Adrenergic α2A): 0.969 ± 0.012 | inhibition at 3 µM (Adrenergic α2A; 3 μM): 51% | in vivo antipsychotic activity (mice): not shown to be efficacious | IC50 (Adrenergic α1D): 377 ± 49 nM | n (Adrenergic α1D): 0.984 ± 0.111 | inhibition at 0.3 µM (Adrenergic α1D; 0.3 μM): 53% | Ki (Adrenergic α1D; read-out: ki): 185 ± 24 nM | Ki (Adrenergic α1D; α1D, read-out: Affinity): 185 nM | receptor occupancy by PET (5-HT2A receptors): occupies | n (Adrenergic α1B): 1.1 ± 0.024 | inhibition at 0.1 µM (Adrenergic α1B; 0.1 μM): 50% | Ki (Adrenergic α1B; read-out: ki): 75 ± 9 nM | Ki (Adrenergic α1B; α1B, read-out: Affinity): 75 nM | bioavailability [1]: 11% | IC50 (Adrenergic α2C): 5640 ± 1010 nM | n (Adrenergic α2C): 1.1 ± 0.079 | inhibition at 10 µM (Adrenergic α2C; 10 μM): 58% | Ki (Adrenergic α2C; read-out: ki): 820 ± 146 nM | Ki (Adrenergic α2C; α2C, read-out: Affinity): 820 nM
